In ChEMBL document CHEMBL1128092, “Potent, orally bioavailable HIV-1 protease inhibitors containing noncoded D-amino acids” (Bioorg Med Chem Lett, 1995):

Experiments:
[1] = biological target: Human immunodeficiency virus type 1 protease (Human immunodeficiency virus 1, UniProt Q72874); assay: Inhibitory activity against HIV-1 protease
[2] = system: CCRF-CEM; assay: (§1) Antiviral activity to inhibit viral replication of HIV-1 infected CEM cells; type: functional, cell-based; settings: Homo sapiens
[3] = system: CCRF-CEM; assay: as §1; type: functional; settings: Homo sapiens

| SMILES | IC50 [1] [µM] | IC50 [2] [µM] | IC95 [3] [µM] |
| --- | --- | --- | --- |
| CC(C)(C)NC(=O)[C@@H]1C[C@@H]2SCC[C@@H]2CN1C[C@@H](O)[C@H](Cc1ccccc1)NC(=O)[C@@H](CS(=O)(=O)c1ccc(F)cc1)NC(=O)C(F)(F)F | < 0.0002 | 0.015 | 0.058 |
| CC(C)(C)NC(=O)[C@@H]1C[C@@H]2CCCC[C@@H]2CN1C[C@@H](O)[C@H](Cc1ccccc1)NC(=O)[C@@H](CS(=O)(=O)c1ccc2ccccc2c1)NS(C)(=O)=O | 0.0005 | 0.0032 | 0.01 |
| CC(C)(C)NC(=O)[C@@H]1C[C@@H]2SCC[C@@H]2CN1C[C@@H](O)[C@H](Cc1ccccc1)NC(=O)[C@@H](CS(=O)(=O)c1cccc2cccnc12)NS(C)(=O)=O | 0.00071 | 0.072 | 0.25 |
| CC(=O)N[C@H](CS(=O)(=O)c1ccc2ccccc2c1)C(=O)N[C@@H](Cc1ccccc1)[C@H](O)CN1C[C@H]2CCS[C@H]2C[C@H]1C(=O)NC(C)(C)C | 0.0005 | 0.0019 | 0.023 |
| CC(C)(C)NC(=O)[C@@H]1C[C@@H]2SCC[C@@H]2CN1C[C@@H](O)[C@H](CSc1ccccc1)NC(=O)[C@@H](CS(=O)(=O)c1ccc2ccccc2c1)NC(=O)C(F)(F)F | 0.0018 | 0.057 | 0.24 |
| CC(C)(C)NC(=O)[C@@H]1C[C@@H]2CCCC[C@@H]2CN1C[C@@H](O)[C@H](Cc1ccccc1)NC(=O)[C@@H](C[S+]([O-])c1ccc(F)cc1)NS(C)(=O)=O (some centres undefined) | 0.0006 | 0.0091 | 0.031 |
| CC(C)CN(C[C@@H](O)[C@H](Cc1ccccc1)NC(=O)[C@@H](C[S+]([O-])c1ccc2ccccc2c1)NS(C)(=O)=O)C(=O)NC(C)(C)C (some centres undefined) | 0.0021 | 0.014 | 0.062 |
| CC(C)(C)NC(=O)[C@@H]1C[C@@H]2CCCC[C@@H]2CN1C[C@@H](O)[C@H](Cc1ccccc1)NC(=O)[C@@H](CS(=O)(=O)c1ccc(F)cc1)NS(C)(=O)=O | 0.002 | 0.017 | 0.054 |
| CC(=O)N[C@H](CS(=O)(=O)c1ccc(F)cc1)C(=O)N[C@@H](CSc1ccccc1)[C@H](O)CN1C[C@H]2CCS[C@H]2C[C@H]1C(=O)NC(C)(C)C | 0.0018 | 0.057 | 0.18 |
| CC(C)CN(C[C@@H](O)[C@H](Cc1ccccc1)NC(=O)[C@@H](CSc1ccc(F)cc1)NS(C)(=O)=O)C(=O)NC(C)(C)C | 0.085 | 17 | 36 |
| CC(=O)N[C@H](CS(=O)(=O)c1cccc2cccnc12)C(=O)N[C@@H](Cc1ccccc1)[C@H](O)CN1C[C@H]2CCCC[C@H]2C[C@H]1C(=O)NC(C)(C)C | 0.0017 | 0.0019 | 0.064 |
| CC(C)(C)NC(=O)[C@@H]1C[C@@H]2CCCC[C@@H]2CN1C[C@@H](O)[C@H](Cc1ccccc1)NC(=O)[C@@H](CSc1ccc2ccccc2c1)NS(C)(=O)=O | 0.0051 | 0.071 | 1.9 |
| CC(C)CN(C[C@@H](O)[C@H](Cc1ccccc1)NC(=O)[C@@H](CS(=O)(=O)c1ccc(F)cc1)NS(C)(=O)=O)C(=O)NC(C)(C)C | 0.01 | 10 | 21 |
| CC(=O)N[C@H](CS(=O)(=O)c1ccc(F)cc1)C(=O)N[C@@H](Cc1ccccc1)[C@H](O)CN1C[C@H]2CCS[C@H]2C[C@H]1C(=O)NC(C)(C)C | – | 0.07 | 0.73 |
| CC(=O)N[C@H](CS(=O)(=O)c1ccc2ccccc2c1)C(=O)N[C@@H](Cc1ccccc1)[C@H](O)CN1C[C@H]2CCCC[C@H]2C[C@H]1C(=O)NC(C)(C)C | 0.0016 | 0.0095 | 0.022 |
| CC(C)(C)NC(=O)[C@@H]1C[C@@H]2CCCC[C@@H]2CN1C[C@@H](O)[C@H](Cc1ccccc1)NC(=O)[C@@H](C[S+]([O-])c1ccc2ccccc2c1)NS(C)(=O)=O (some centres undefined) | 0.0004 | 0.0038 | 0.0082 |
| CC(C)(C)NC(=O)[C@@H]1C[C@@H]2SCC[C@@H]2CN1C[C@@H](O)[C@H](Cc1ccccc1)NC(=O)[C@@H](CS(=O)(=O)c1cccc2cccnc12)NC(=O)C(F)(F)F | 0.00021 | 0.018 | 0.062 |
| CC(C)(C)NC(=O)[C@@H]1C[C@@H]2SCC[C@@H]2CN1C[C@@H](O)[C@H](Cc1ccccc1)NC(=O)[C@@H](CS(=O)(=O)c1ccc2ccccc2c1)NS(C)(=O)=O | < 0.0002 | 0.027 | 0.085 |
| CC(C)CN(C[C@@H](O)[C@H](Cc1ccccc1)NC(=O)[C@@H](CSc1ccc2ccccc2c1)NS(C)(=O)=O)C(=O)NC(C)(C)C | 0.05 | 4.7 | 9.9 |
| CC(C)(C)NC(=O)[C@@H]1C[C@@H]2SCC[C@@H]2CN1C[C@@H](O)[C@H](Cc1ccccc1)NC(=O)[C@@H](CS(=O)(=O)c1ccc(F)cc1)NS(C)(=O)=O | 0.00022 | 0.043 | 0.19 |
| CC(=O)N[C@H](CSCc1ccccc1)C(=O)N[C@@H](Cc1ccccc1)[C@H](O)CN1C[C@H]2CCCC[C@H]2C[C@H]1C(=O)NC(C)(C)C | 0.006 | 0.077 | 0.305 |
| CC(C)(C)NC(=O)[C@@H]1C[C@@H]2SCC[C@@H]2CN1C[C@@H](O)[C@H](Cc1ccccc1)NC(=O)[C@@H](CS(=O)(=O)c1ccc2ccccc2c1)NC(=O)C(F)(F)F | < 0.0002 | 0.0046 | 0.032 |
| CC(=O)N[C@H](CS(=O)(=O)c1cccc2cccnc12)C(=O)N[C@@H](Cc1ccccc1)[C@H](O)CN1C[C@H]2CCS[C@H]2C[C@H]1C(=O)NC(C)(C)C | 0.00042 | 0.14 | 0.3 |
| CC(C)(C)NC(=O)[C@@H]1C[C@@H]2CCCC[C@@H]2CN1C[C@@H](O)[C@H](Cc1ccccc1)NC(=O)[C@@H](CSc1ccc(F)cc1)NS(C)(=O)=O | 0.024 | 0.15 | 0.55 |
| CC(C)(C)NC(=O)[C@@H]1C[C@@H]2SCC[C@@H]2CN1C[C@@H](O)[C@H](CSc1ccccc1)NC(=O)[C@@H](CS(=O)(=O)c1ccc(F)cc1)NC(=O)C(F)(F)F | 0.01 | 0.18 | 0.84 |
